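These data come from cells grown in 96-well plates and exposed to compound for 48 hours at five concentrations. GI50 is the concentration that inhibits growth by half. TGI: concentration producing complete growth inhibition.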
How the values were obtained:
Assay in all cases: NCI anticancer screen, dose series, 48 h
786-0 renal = test system: 786-0 renal
A498 renal = test system: A498 renal
A549 NSCLC = test system: A549 NSCLC
ACHN renal = test system: ACHN renal
BT-549 breast = test system: BT-549 breast
CAKI-1 renal = test system: CAKI-1 renal
CCRF-CEM leukemia = test system: CCRF-CEM leukemia
COLO 205 colon = test system: COLO 205 colon
DU-145 prostate = test system: DU-145 prostate
EKVX NSCLC = test system: EKVX NSCLC
HCC-2998 colon = test system: HCC-2998 colon
HCT-116 colon = test system: HCT-116 colon
HCT-15 colon = test system: HCT-15 colon
HL-60(TB) leukemia = test system: HL-60(TB) leukemia
HOP-62 NSCLC = test system: HOP-62 NSCLC
HOP-92 NSCLC = test system: HOP-92 NSCLC
HS 578T breast = test system: HS 578T breast
HT29 colon = test system: HT29 colon
IGROV1 ovarian = test system: IGROV1 ovarian
K-562 leukemia = test system: K-562 leukemia
KM12 colon = test system: KM12 colon
LOX IMVI melanoma = test system: LOX IMVI melanoma
M14 melanoma = test system: M14 melanoma
MALME-3M melanoma = test system: MALME-3M melanoma
MCF7 breast = test system: MCF7 breast
MDA-MB-231 breast = test system: MDA-MB-231 breast
MDA-MB-435 = test system: MDA-MB-435
MOLT-4 leukemia = test system: MOLT-4 leukemia
NCI-H226 lung = test system: NCI-H226 lung
NCI-H23 lung = test system: NCI-H23 lung
NCI-H460 lung = test system: NCI-H460 lung
NCI-H522 lung = test system: NCI-H522 lung
NCI/ADR-RES ovarian = test system: NCI/ADR-RES ovarian
OVCAR-3 ovarian = test system: OVCAR-3 ovarian
OVCAR-4 ovarian = test system: OVCAR-4 ovarian
OVCAR-5 ovarian = test system: OVCAR-5 ovarian
OVCAR-8 ovarian = test system: OVCAR-8 ovarian
PC-3 prostate = test system: PC-3 prostate
RPMI-8226 leukemia = test system: RPMI-8226 leukemia
RXF 393 renal = test system: RXF 393 renal
SF-268 CNS = test system: SF-268 CNS
SF-295 CNS = test system: SF-295 CNS
SF-539 CNS = test system: SF-539 CNS
SK-MEL-2 melanoma = test system: SK-MEL-2 melanoma
SK-MEL-28 melanoma = test system: SK-MEL-28 melanoma
SK-MEL-5 melanoma = test system: SK-MEL-5 melanoma
SK-OV-3 ovarian = test system: SK-OV-3 ovarian
SN12C renal = test system: SN12C renal
SNB-19 CNS = test system: SNB-19 CNS
SNB-75 CNS = test system: SNB-75 CNS
SR leukemia = test system: SR leukemia
SW-620 colon = test system: SW-620 colon
T-47D breast = test system: T-47D breast
TK-10 renal = test system: TK-10 renal
U251 CNS = test system: U251 CNS
UACC-257 melanoma = test system: UACC-257 melanoma
UACC-62 melanoma = test system: UACC-62 melanoma
UO-31 renal = test system: UO-31 renal

**Q.** Which results are given for `C[C@H]1CNC(=O)c2cnn3ccc(nc23)N[C@H](C)c2cc(F)ccc2O1`?
**A.** GI50 (786-0 renal): 495 nM; TGI (786-0 renal): 2110 nM; GI50 (A498 renal): 216 nM; TGI (A498 renal): 886 nM; GI50 (A549 NSCLC): 937 nM; TGI (A549 NSCLC): 16400 nM; GI50 (ACHN renal): 558 nM; TGI (ACHN renal): 4360 nM; GI50 (BT-549 breast): 1100 nM; TGI (BT-549 breast): 2520 nM; GI50 (CAKI-1 renal): 343 nM; TGI (CAKI-1 renal): 1590 nM; GI50 (CCRF-CEM leukemia): 444 nM; TGI (CCRF-CEM leukemia): > 67200 nM; GI50 (COLO 205 colon): 779 nM; TGI (COLO 205 colon): 4330 nM; GI50 (DU-145 prostate): 2260 nM; TGI (DU-145 prostate): 12800 nM; GI50 (EKVX NSCLC): 1240 nM; TGI (EKVX NSCLC): > 75400 nM; GI50 (HCC-2998 colon): 3260 nM; TGI (HCC-2998 colon): 70300 nM; GI50 (HCT-116 colon): 559 nM; TGI (HCT-116 colon): 16900 nM; GI50 (HCT-15 colon): 2050 nM; TGI (HCT-15 colon): 13400 nM; GI50 (HL-60(TB) leukemia): 4660 nM; TGI (HL-60(TB) leukemia): > 62500 nM; GI50 (HOP-62 NSCLC): 1030 nM; TGI (HOP-62 NSCLC): > 21500 nM; GI50 (HOP-92 NSCLC): 184 nM; TGI (HOP-92 NSCLC): 998 nM; GI50 (HS 578T breast): 325 nM; TGI (HS 578T breast): 2760 nM; GI50 (HT29 colon): 457 nM; GI50 (IGROV1 ovarian): 292 nM; TGI (IGROV1 ovarian): 1920 nM; GI50 (K-562 leukemia): 3640 nM; TGI (K-562 leukemia): > 100000 nM; TGI (KM12 colon): > 100000 nM; GI50 (LOX IMVI melanoma): 334 nM; TGI (LOX IMVI melanoma): 1430 nM; GI50 (M14 melanoma): 1780 nM; TGI (M14 melanoma): > 100000 nM; GI50 (MALME-3M melanoma): 16600 nM; TGI (MALME-3M melanoma): > 100000 nM; GI50 (MCF7 breast): 381 nM; TGI (MCF7 breast): > 100000 nM; GI50 (MDA-MB-231 breast): 514 nM; TGI (MDA-MB-231 breast): 13000 nM; GI50 (MDA-MB-435): 8840 nM; TGI (MDA-MB-435): > 91200 nM; GI50 (MOLT-4 leukemia): 1960 nM; TGI (MOLT-4 leukemia): 42200 nM; GI50 (NCI-H226 lung): 1030 nM; TGI (NCI-H226 lung): 3830 nM; GI50 (NCI-H23 lung): 1930 nM; TGI (NCI-H23 lung): 53100 nM; GI50 (NCI-H460 lung): 946 nM; TGI (NCI-H460 lung): 25100 nM; GI50 (NCI-H522 lung): 2430 nM; TGI (NCI-H522 lung): 24400 nM; GI50 (NCI/ADR-RES ovarian): 8630 nM; TGI (NCI/ADR-RES ovarian): 47400 nM; GI50 (OVCAR-3 ovarian): 1320 nM; TGI (OVCAR-3 ovarian): 19600 nM; GI50 (OVCAR-4 ovarian): 1670 nM; TGI (OVCAR-4 ovarian): 26600 nM; GI50 (OVCAR-5 ovarian): 385 nM; TGI (OVCAR-5 ovarian): 9560 nM; GI50 (OVCAR-8 ovarian): 2540 nM; TGI (OVCAR-8 ovarian): > 55100 nM; GI50 (PC-3 prostate): 1530 nM; TGI (PC-3 prostate): > 67000 nM; GI50 (RPMI-8226 leukemia): 10300 nM; TGI (RPMI-8226 leukemia): 41600 nM; GI50 (RXF 393 renal): 282 nM; TGI (RXF 393 renal): 1260 nM; GI50 (SF-268 CNS): 809 nM; TGI (SF-268 CNS): 3790 nM; GI50 (SF-295 CNS): 595 nM; TGI (SF-295 CNS): 8150 nM; GI50 (SF-539 CNS): 743 nM; TGI (SF-539 CNS): 3790 nM; GI50 (SK-MEL-2 melanoma): 3540 nM; TGI (SK-MEL-2 melanoma): 24000 nM; GI50 (SK-MEL-28 melanoma): 18500 nM; TGI (SK-MEL-28 melanoma): > 100000 nM; GI50 (SK-MEL-5 melanoma): 8910 nM; TGI (SK-MEL-5 melanoma): 32300 nM; GI50 (SK-OV-3 ovarian): 641 nM; TGI (SK-OV-3 ovarian): 10000 nM; GI50 (SN12C renal): 815 nM; TGI (SN12C renal): 12800 nM; GI50 (SNB-19 CNS): 2170 nM; TGI (SNB-19 CNS): 47400 nM; GI50 (SNB-75 CNS): 146 nM; TGI (SNB-75 CNS): 1050 nM; GI50 (SR leukemia): 50 nM; TGI (SR leukemia): 19200 nM; GI50 (SW-620 colon): 517 nM; TGI (SW-620 colon): > 55100 nM; GI50 (T-47D breast): 1600 nM; TGI (T-47D breast): > 93500 nM; GI50 (TK-10 renal): 749 nM; TGI (TK-10 renal): 3120 nM; GI50 (U251 CNS): 3360 nM; TGI (U251 CNS): > 100000 nM; GI50 (UACC-257 melanoma): 6450 nM; TGI (UACC-257 melanoma): > 94000 nM; GI50 (UACC-62 melanoma): 2320 nM; TGI (UACC-62 melanoma): 39000 nM; GI50 (UO-31 renal): 1210 nM; TGI (UO-31 renal): 3560 nM
